Data reported in patent US11071731B2, “Allosteric modulators of the mu opioid receptor” (Chiromics, LLC, priority 2017, dated 2021).

Assays:
mu opioid receptor (MOR) [1] = target: T1, mu opioid receptor (MOR) (Homo sapiens, UniProt P35372); assay: PathHunter β-arrestin recruitment assay, PAM mode with EC20 endomorphin-1; assay type: cell-based
Summary of the method: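 β-Arrestin recruitment to the receptor was tracked by chemiluminescent β-galactosidase activity from complementing fragments (ED on receptor, EA on β-arrestin). Per-compound outputs were EC50 and percent maximal response.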

mu opioid receptor (MOR) [2] = target: T1, mu opioid receptor (MOR); assay: Hit Hunter cAMP signaling assay (adenylyl cyclase inhibition), PAM mode with EC20 endomorphin-1; assay type: cell-based
[3] = maximal response for β-arrestin recruitment
[4] = β-arrestin recruitment, read-out: β-arr. EC50
[5] = adenylyl cyclase inhibition, read-out: cAMP EC50
[6] = maximal response for adenylyl cyclase inhibition
[7] = cAMP EC50, adenylyl cyclase inhibition
[8] = maximal response, β-arrestin recruitment
[9] = maximal response, adenylyl cyclase inhibition

T1 sequence (P35372 whole entry, the tested form may be a part): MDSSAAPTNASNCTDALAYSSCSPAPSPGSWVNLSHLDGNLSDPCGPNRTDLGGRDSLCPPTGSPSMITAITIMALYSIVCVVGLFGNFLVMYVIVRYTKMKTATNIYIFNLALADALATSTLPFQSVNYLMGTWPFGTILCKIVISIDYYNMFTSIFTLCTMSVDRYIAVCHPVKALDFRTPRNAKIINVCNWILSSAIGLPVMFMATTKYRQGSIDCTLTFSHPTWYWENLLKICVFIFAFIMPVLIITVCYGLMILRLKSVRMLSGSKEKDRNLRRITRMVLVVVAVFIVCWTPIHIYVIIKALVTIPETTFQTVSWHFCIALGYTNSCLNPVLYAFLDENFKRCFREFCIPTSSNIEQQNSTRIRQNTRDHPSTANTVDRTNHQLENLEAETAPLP

SMILES	β-arr Max. Resp. (mu opioid receptor (MOR) [1]; [3])	EC50 (mu opioid receptor (MOR) [1]; [4])	EC50 (mu opioid receptor (MOR) [2]; [5])	cAMP Max. Resp. (mu opioid receptor (MOR) [2]; [6])	EC50 (mu opioid receptor (MOR) [2]; [7])	also measured
COc1ccc(C2COCCN2Cc2cc(Cl)ccc2F)cc1Br (racemic) [Compound 192]	F (F represents a maximal response of > 60%)	> 2.1 µM	> 2.1 µM	D (D represents a maximal response of < 40%)	–	–
CN(C)c1cccc(C2CCCCN2c2nc(N(C)C)ncc2F)n1 (stereo not shown) [compound 243]	F (F represents a maximal response of > 60%)	> 2.1 µM	–	E (E represents a maximal response of 40-60%)	> 2.1 µM	–
FC(F)(F)c1cccc(C2CCCCN2Cc2cc(Cl)ccc2Cl)n1 (stereo not shown) [compound 176]	F (F represents a maximal response of > 60%)	0.7 to 2.1 µM	–	F (F represents a maximal response of > 60%)	0.7 to 2.1 µM	–
COc1ccc(C2CC(C(F)(F)F)CN2S(=O)(=O)c2ccc(Cl)cc2)cc1Br (single isomer, unassigned) [Compound 119]	E (E represents a maximal response of 40-60%)	> 2.1 µM	> 2.1 µM	D (D represents a maximal response of < 40%)	–	–
Oc1cnc2ccc(C3CCCCN3c3nc(Cl)ncc3F)cc2c1 (stereo not shown) [compound 393]	D (D represents a maximal response of < 40%)	< 0.7 µM	–	D (D represents a maximal response of < 40%)	< 0.7 µM	–
O=S(=O)(c1cc(F)ccc1F)N1CCCCC1c1cccc(C(F)(F)F)c1 (stereo not shown) [Compound 26]	F (F represents a maximal response of > 60%)	> 2.1 µM	> 2.1 µM	D (D represents a maximal response of < 40%)	–	–
Fc1cc(C2CCC(OCCN3CCOCC3)CN2c2nc(Cl)ncc2F)cc(C(F)(F)F)c1 (stereo not shown) [compound 304]	D (D represents a maximal response of < 40%)	> 2.1 µM	> 2.1 µM	D (D represents a maximal response of < 40%)	–	–
O=S(=O)(c1ccc(Cl)cc1)N1CCCCC1c1ccc(Cl)c(Br)c1 (racemic) [compound 74]	F (F represents a maximal response of > 60%)	> 2.1 µM	> 2.1 µM	E (E represents a maximal response of 40-60%)	–	–
CCC1CCCN(c2nc(Cl)ncc2F)C1c1ccc(OC)c(Br)c1 (stereo not shown) [compound 251]	F (F represents a maximal response of > 60%)	> 2.1 µM	> 2.1 µM	D (D represents a maximal response of < 40%)	–	–
Cc1cnc(C2CCCCN2c2nc(Cl)ncc2F)o1 (stereo not shown) [compound 364]	D (D represents a maximal response of < 40%)	< 0.7 µM	–	D (D represents a maximal response of < 40%)	< 0.7 µM	–
[2H]C1(c2ccc(F)c(Br)c2)C(F)CCCN1S(=O)(=O)Cc1ccc(Cl)cc1 (stereo not shown) [Compound 33]	F (F represents a maximal response of > 60%)	–	–	D (D represents a maximal response of < 40%)	–	–
[2H]C1(c2ccc(F)c(Br)c2)C(F)CCCN1S(=O)(=O)c1cccc(Cl)c1 (stereo not shown) [Compound 32]	F (F represents a maximal response of > 60%)	–	–	D (D represents a maximal response of < 40%)	–	–
COc1ccc(C2CCCCN2c2nc(Cl)ncc2F)cc1Br (stereo not shown) [compound 132]	F (F represents a maximal response of > 60%)	> 2.1 µM	–	D (D represents a maximal response of < 40%)	0.7 to 2.1 µM	–
Cc1c(C2CCCCN2c2nc(Cl)ncc2F)cccc1C(F)(F)F (stereo not shown) [compound 135]	F (F represents a maximal response of > 60%)	0.7 to 2.1 µM	–	D (D represents a maximal response of < 40%)	< 0.7 µM	–
O=S(=O)(Cc1ccc(Cl)c(Cl)c1)N1CCCCC1c1cccc(C(F)(F)F)c1 (stereo not shown) [Compound 23]	F (F represents a maximal response of > 60%)	> 2.1 µM	> 2.1 µM	D (D represents a maximal response of < 40%)	–	–
O=S(=O)(c1ccc(Cl)cc1)N1CCCCC1c1ccc(Br)c(F)c1 (racemic) [compound 71]	F (F represents a maximal response of > 60%)	> 2.1 µM	> 2.1 µM	D (D represents a maximal response of < 40%)	–	β-arrestin Max Response (mu opioid receptor (MOR) [1]; β-arrestin recruitment, activity switching by MOR PAMs): F (F represents a maximal response of >60%); EC50 (mu opioid receptor (MOR) [1]; β-arrestin recruitment, activity switching by MOR PAMs, read-out: β-arrestin EC50): > 2.1 µM; cAMP Max Resp. (mu opioid receptor (MOR) [2]; adenylyl cyclase inhibition, activity switching by MOR PAMs): D (D represents a maximal response of < 40%); EC50 (mu opioid receptor (MOR) [2]; adenylyl cyclase inhibition, activity switching by MOR PAMs, read-out: cAMP EC50): > 2.1 µM
COc1ccc(C2N(S(=O)(=O)c3ccc(Cl)cc3)CCC2(F)C(F)(F)F)cc1Br (mixture of isomers) [Compound 103]	F (F represents a maximal response of > 60%)	> 2.1 µM	0.7 to 2.1 µM	D (D represents a maximal response of < 40%)	–	–
COc1ccc(C2CC(C)CN2S(=O)(=O)c2ccc(Cl)cc2)cc1Br (single isomer, unassigned) [Compound 118]	E (E represents a maximal response of 40-60%)	0.7 to 2.1 µM	> 2.1 µM	D (D represents a maximal response of < 40%)	–	–
C#Cc1cccc(N2CCCCC2c2cccc(C(F)(F)F)n2)c1 (stereo not shown) [compound 451]	–	> 2.1 µM	–	–	> 2.1 µM	β-arr Max. Resp. (mu opioid receptor (MOR) [1]; [8]): F (F represents a maximal response of > 60%); cAMP Max. Resp. (mu opioid receptor (MOR) [2]; [9]): D (D represents a maximal response of < 40%)
FC(F)(F)c1cccc(C2CCCCN2c2ccnc(Cl)n2)c1 (stereo not shown) [compound 257]	F (F represents a maximal response of > 60%)	> 2.1 µM	–	D (D represents a maximal response of < 40%)	> 2.1 µM	–
Fc1cnc(Cl)nc1N1CCCCC1c1ccccc1 (stereo not shown) [compound 362]	D (D represents a maximal response of < 40%)	< 0.7 µM	–	D (D represents a maximal response of < 40%)	< 0.7 µM	–
Fc1cc(C2CCCCN2Cc2cccc(Br)c2)cc(C(F)(F)F)c1 (stereo not shown) [compound 148]	F (F represents a maximal response of > 60%)	0.7 to 2.1 µM	–	E (E represents a maximal response of 40-60%)	> 2.1 µM	–
Fc1cnc(Cl)nc1N1CCCCC1c1cncc(Cl)n1 (stereo not shown) [compound 277]	E (E represents a maximal response of 40-60%)	> 2.1 µM	–	D (D represents a maximal response of < 40%)	> 2.1 µM	–
Fc1cnc(Cl)nc1N1CCCCC1c1cncc(Cl)c1 (stereo not shown) [compound 280]	F (F represents a maximal response of > 60%)	–	–	E (E represents a maximal response of 40-60%)	–	EC50 (mu opioid receptor (MOR) [2]): > 2.1 µM
Fc1ccc(C2CCCCN2c2nc(Cl)ncc2F)cc1C(F)(F)F (single isomer, unassigned) [compound 422]	–	< 0.7 µM	–	–	< 0.7 µM	β-arr Max. Resp. (mu opioid receptor (MOR) [1]; [8]): D (D represents a maximal response of < 40%); cAMP Max. Resp. (mu opioid receptor (MOR) [2]; [9]): D (D represents a maximal response of < 40%)
O=S(=O)(c1ccc(Cl)cc1)N1CCCCC1c1ccc(F)cc1 (racemic) [compound 78]	F (F represents a maximal response of > 60%)	0.7 to 2.1 µM	< 0.7 µM	E (E represents a maximal response of 40-60%)	–	–
